Test system: anesthetized rats
Assay: Cardiovascular effects (blood pressure, heart rate) in anesthetized rats pretreated with heparin and histamine antagonists or NO synthase inhibitor
Assay type: in vivo, rat
Conditions: for blocking of blood pressure reductions caused by IV infusion of Compound 100: pretreatment at T = -15 minutes, Compound 100 at 8 and 16 mg/kg, anesthetized rat
Procedure: A purpose of this study was to evaluate the role of histamine or nitric oxide (NO) on the hemodynamic effects of Compound 100 administered by a 10 minute IV infusion in rats by pretreatment with an H1 receptor blocker (diphenhydramine; DPH), an H2 receptor blocker (cimetidine; CIM), or an NO synthase inhibitor (L-NAME). Surgically prepared animals (jugular vein catheter for test article administration and carotid artery catheter for blood pressure/heart rate measurement) were purchased from Charles River Laboratories, Raleigh, N.C. Animals were anesthetized on the day of experimentation with isoflurane (1.8-4%). Blood pressure and heart rate data were collected on a Grass Polygraph recorder. Groups of three or four animals were administered two pretreatments followed by the administration of the vehicle or Compound 100. Dose groups are described in Table 1. Treatment 1 was administered at T=−15 minutes as an intravenous administration of saline, cimetidine or L-Name, a subcutaneous dose of diphenhydramine or a combination of diphenhydramine (s.c.) and cimetidine (i.v.). Saline or heparin were administered at T=−3 minutes by intravenous administration (Treatment 2). Treatment 3 was Compound 100 or sterile water (vehicle) which was administered by a 10 minute intravenous infusion. Blood pressure and heart rate were recorded prior to Treatment 1, 5 and 10 minutes after Treatment 1, 2 minutes following Treatment 2, and at 1, 15, 25, 40, and 70 minutes following Treatment 3. Each recording interval was approximately 1 minute long. [table]

| Compound | blocking of blood pressure reductions caused by IV infusion of Compound 100 | blood pressure following administration of L-NAME, prior to dosing of test agent (L-NAME 100 mg/kg i.v., before Compound 100) |
| --- | --- | --- |
| CN/C(=N/CCSCc1nc[nH]c1C)NC#N [Cimetidine, cimetidine] | only prevented blood pressure reductions at the 8 mg/kg dose |  |
| CN(C)CCOC(c1ccccc1)c1ccccc1 [diphenhydramine] | effectively blocks blood pressure reductions |  |
| COC(=O)[C@@H](N)CCCNC(=N)N[N+](=O)[O-] [L-NAME] | ineffective at both Compound 100 dosages | increases in blood pressure were evident |

From patent publication US20140162955A1, “Antagonizing Heparin With Salicylamide Compounds And Histamine Blocking Agents” (CELLCEUTIX CORPORATION, priority 2012, published 2014)
